Key:
[1] = tested on: recombinant GLUT4 (myc-GLUT4-ECFP) in C2C12 myotube cells; test: Measurement of GLUT4 membrane-translocation activity by anti-myc antibody uptake, western blot analysis; format: cell-based, mouse; conditions: insulin 100 nM, 60 minutes
Protocol: The C2C12 myotube cells expressing a recombinant GLUT4, prepared according to Preparation Example 3, were stimulated by insulin with a final concentration of 100 nM for 60 minutes. After 30 minutes from the start of insulin stimulation, an anti-myc-monoclonal antibody with a final concentration of 4 μg/ml was supplemented in a culture medium. After insulin stimulation, the cells were washed 5 times with PBS (−) to remove anti-myc antibodies that were present on the cell membrane, and subsequently, a cell extract was prepared using Laemmli's buffer. The cell extract was used for 12.5% SDS-PAGE, and western blot analysis using an anti-mice-IgG antibody bound to horseradish peroxidase was carried out. Moreover, detection was carried out using a west super femto detection kit (Pierce Biotechnology Inc.).

[2] = tested on: myc-GLUT4-ECFP in C2C12 myotube cells; test: Immunostaining of myc on the membrane, confocal microscope (membrane translocation of GLUT4); format: cell-based, mouse; conditions: insulin 100 nM, 60 minutes; FIG. 13
Protocol: The C2C12 myotube cells (differentiation-type culture myotube cell) expressing a myc-GLUT4-ECFP, prepared according to Preparation Example 3, were stimulated by insulin with a final concentration of 100 nM for 60 minutes. After being washed 3 times with PBS (−), they were fixed by being shaken in PBS (−) supplemented with 2% paraformaldehyde for 15 minutes. After being washed 3 times×10 minutes with PBS (−), they were blocked by being shaken in PBS (−) supplemented with 5% bovine serum for 1 hour. Next, they were shaken for 1 hour using an anti-myc-monoclonal antibody diluted 200-fold with PBS (−) supplemented with 1% bovine serum albumin as a primary antibody. After being washed 5 times×10 minutes with PBS (−), they were shaken for 1 hour using an anti-mice-IgG antibody (The Jackson Laboratory) bound to rhodamine that was diluted 2000-fold with PBS (−) supplemented with 1% bovine serum albumin as a secondary antibody. Subsequently, the glass cover was removed, and they were placed on a glass slide on which Vecta Shield was dropped, and rhodamine and expression of ECFP were observed under a confocal microscope.

insulin was tested, and the “amount of the anti-myc antibody incorporated into the cells” value ([1]; FIG. 14A) was “significantly increased”, the “GLUT4 activity increase by insulin (quantified western blot)” value ([1]; anti-myc antibody 4 μg/ml, FIG. 14C) was “approximately 3 fold” and the “membrane translocation of GLUT4 (myc on the membrane)” value [2] was “GLUT4 was translocated on the membrane”.

Reference: patent US20080299086A1, “Cultured muscle cells with high metabolic activity and method for production of the cultured muscle cells” (TOHOKU UNIVERSITY, priority 2006, published 2008)
